The target of this assay is Protein kinase C (PKC). Briefly: Inhibition of protein kinase C. It counts as protein assay, Rattus norvegicus.

As usually defined, the IC50 is the concentration that inhibits the measured activity by half. For `O=Cc1csc(-c2ccc(-c3ccc(CO)s3)s2)c1`, the IC50 is 0.00003 M.
Turning to `O=Cc1csc(-c2cccs2)c1`, the IC50 turned out to be 0.0005 M.
On to `OCc1csc(-c2cccs2)c1`, for which the IC50 is reported as more than 0.001 M.
Under `O=Cc1ccc(-c2ccc(-c3cc(CO)cs3)s2)s1` stands 3e-07 M; under `O=Cc1ccsc1`, more than 0.004 M; under `OCc1csc(-c2ccc(-c3ccc(CO)s3)s2)c1`, 0.0003 M.
Consider `OCc1csc(-c2ccc(CO)s2)c1`, for which the IC50 is more than 0.001 M.
For `O=Cc1csc(-c2ccc(-c3cccs3)s2)c1`, the IC50 is 5e-06 M.
Under `O=Cc1csc(-c2ccc(-c3ccc(C=O)s3)s2)c1` stands 7e-07 M.
In turn, `O=Cc1csc(-c2ccc(C=O)s2)c1` yielded a concentration for half-maximal inhibition (IC50) of 0.001 M.
The compound `OCc1csc(-c2ccc(-c3cccs3)s2)c1` came in with an IC50 of 3e-06 M. Against the preceding compound, the IC50 is about 330-fold lower.
In the case of `OCc1ccsc1`, the IC50 is listed as more than 0.004 M.
For the compound `CN1CCN(CCCN2c3ccccc3Sc3ccc(C(F)(F)F)cc32)CC1` [TRIFLUOPERAZINE], the half-maximal inhibitory concentration (IC50) is on record as 0.0005 M.

The record behind these values is ChEMBL document CHEMBL1131829, “Novel protein kinase C inhibitors: synthesis and PKC inhibition of beta-substituted polythiophene derivatives” (Bioorg Med Chem Lett, 1999).
